From patent US20200352163A1, “ANTIMICROBIAL MIXTURE CONTAINING 4-(3-ETHOXY-4-HYDROXYPHENYL)BUTAN-2-ONE AND AN AROMATIC ALCOHOL, AND COSMETIC COMPOSITION CONTAINING SAME” (L'OREAL, priority 2017, published 2020)
One block for each compound: values may come before it.

Assays:
Test in all cases: MIC / FIC synergy test in 96-well microplate, optical density at 620 nm
Type in all cases: cell-based
Details in all cases: for microbial growth percentage: weight %
[1] = test system: Aspergillus niger ATCC 6275
Source text: (§1) FIC Index=(MIC of A with B/MIC of A)+(MIC of B with A/MIC of B)
(§2) with: • MIC of A with B: minimum concentration of product A in the combination A+B which makes it possible to obtain an inhibitory effect; • MIC of B with A: minimum concentration of product B in the combination A+B which makes it possible to obtain an inhibitory effect; • MIC of A: minimum inhibitory concentration of product A alone; • MIC of B: minimum inhibitory concentration of product B alone.
(§3) As regards the combinations tested, MIC of A with B and MIC of B with A are the respective concentrations of A and of B in the combinations which make it possible to obtain a microbial growth percentage of less than or equal to 20%.
(§4) When the FIC index value is less than or equal to 1, it is considered that the combination of test compounds has a synergistic effect.
The microbial strain Aspergillus niger ATCC 6275, and a double-concentration Sabouraud broth liquid culture medium supplemented with polyoxyethylenated (20 OE) sorbitan monopalmitate (Tween 40 from Croda) and Phytagel© BioReagent were used (i.e. a mixture of 5 g of Phytagel+0.6 g Tween 40+60 g of Sabouraud broth).
(§5) A 96-well microplate and an incubation temprature of 32.5° C. are used.
(§6) The incubation time of the microplate is: • from 18 to 24 h under aerobic conditions for Candida albicans ATCC 10231, Pseudomonas aeruginosa ATCC 9027 and Staphylococcus aureus ATCC 6538; • from 24 to 30 h under aerobic conditions for microbial Aspergillus niger ATCC 6275; • from 24 to 48 h under aerobic conditions for Enterococcus faecalis ATCC 33186.
(§7) A 10% (weight/volume) stock solution was prepared by mixing 1 g of compound in 9 ml of aqueous 1‰ agar solution. Successive dilutions were made with the 1‰ agar solution.
(§8) 50 μl of each of the daughter solutions obtained containing compound A or B are added to the microplate wells. 100 μl of Sabouraud liquid nutrient broth inoculated at double concentration with the Aspergillus niger strain and 50 μl of aqueous 1‰ agar solution are also added thereto.
(§9) 50 μl of each of the daughter solutions obtained containing compound A and 50 μl of each of the daughter solutions obtained containing compound B are added to the microplate wells. 100 μl of Sabouraud liquid nutrient broth inoculated at double concentration with the strain Aspergillus niger are also added thereto.
(§10) A positive microbial growth control was also prepared. The positive microbial growth control corresponds to a mixture of 100 μl of aqueous 1‰ agar solution with 100 μl of Sabouraud liquid nutrient broth inoculated at double concentration with the strain Aspergillus niger in the absence of compounds A and B.
(§11) An absorbance control was performed in parallel on compounds A and B alone. This control corresponds to 100 μl of double concentration sterile Sabouraud liquid nutrient broth+100 μl of double concentration compound A or B.
(§12) In the three cases (absorbance control, growth control and test), the final volume present in each of the microplate wells is 200 μl.
In the two cases (test and control), the inoculum represents the concentration of the Aspergillus niger strain present in the final volume of the wells (200 μl) and is between 2 and 6×10^5 cfu/ml of Aspergillus niger.

[2] = test system: Enterococcus faecalis ATCC 33186
Source text: as §1, §2, §3, §4
The microbial strain Enterococcus faecalis ATCC 33186 and a double-concentration BHI (Brain Heart Infusion) broth liquid culture medium were used.
as §5, §6, §7, §8, §9, §10, §11, §12
(§13) The test as described above (tests, absorbance control and growth control) was performed again to test the combination A+B on the following strains Enterococcus faecalis, Staphylococcus aureus, Pseudomonas aeruginosa, Candida albicans.

[3] = test system: Staphylococcus aureus ATCC 6538
Source text: as §1, §2, §3, §4
The microbial strain Staphylococcus aureus ATCC 6538 and a double-concentration nutrient broth liquid culture medium were used.
as §5, §6, §7, §8, §9, §10, §11, §12, §13

[4] = test system: Pseudomonas aeruginosa ATCC 9027
Source text: as §1, §2, §3, §4
The microbial strain Pseudomonas aeruginosa ATCC 9027 and a double-concentration nutrient broth liquid culture medium were used.
as §5, §6, §7, §8, §9, §10, §11, §12, §13

[5] = test system: Candida albicans ATCC 10231
Source text: as §1, §2, §3, §4
The microbial strain Candida albicans ATCC 10231 and a double-concentration Sabouraud broth liquid culture medium were used.
as §5, §6, §7, §8, §9, §10, §11, §12, §13

[6] = Example 1, first concentration giving growth <= 20%
[7] = Example 5, first concentration giving growth <= 20%
[8] = first concentration giving growth <= 20%

Structure (SMILES): CCOc1cc(CCC(C)=O)ccc1O [A, 4-(3-ethoxy-4-hydroxyphenyl)butan-2-one]
microbial growth percentage ([1]; 0.0625 A alone, Example 1): 85% | microbial growth percentage ([1]; 0.0625 A alone, Example 5): 86% | microbial growth percentage ([1]; 0.125 A alone, Example 1): 47% | microbial growth percentage ([1]; 0.125 A alone, Example 5): 41% | microbial growth percentage ([1]; 0.25 A alone, Example 1): 7% | microbial growth percentage ([1]; 0.25 A alone, Example 5): 6% | % MIC of A alone [1, 6]: 0.25% | % MIC of A alone [1, 7]: 0.25% | microbial growth percentage ([2]; 0.0625 A alone, Example 1): 82% | microbial growth percentage ([2]; 0.0625 A alone, Example 5): 78% | microbial growth percentage ([2]; 0.0625 A alone, Example 6): 42% | microbial growth percentage ([2]; 0.125 A alone, Example 1): 89% | microbial growth percentage ([2]; 0.125 A alone, Example 5): 86% | microbial growth percentage ([2]; 0.125 A alone, Example 6): 42% | microbial growth percentage ([2]; 0.25 A alone, Example 1): 89% | microbial growth percentage ([2]; 0.25 A alone, Example 5): 92% | microbial growth percentage ([2]; 0.25 A alone, Example 6): 33% | microbial growth percentage ([2]; 0.5 A alone, Example 1): 75% | microbial growth percentage ([2]; 0.5 A alone, Example 5): 72% | microbial growth percentage ([2]; 0.5 A alone, Example 6): 34% | microbial growth percentage ([2]; 1 A alone, Example 1): 13% | microbial growth percentage ([2]; 1 A alone, Example 5): 4% | microbial growth percentage ([2]; 1 A alone, Example 6): 24% | % MIC of A alone [2, 6]: 1% | % MIC of A alone [2, 7]: 1% | % MIC of A alone ([2]; Example 6): 1% | microbial growth percentage ([3]; 0.0625 A alone): 71% | microbial growth percentage ([3]; 0.125 A alone): 57% | microbial growth percentage ([3]; 0.25 A alone): 52% | microbial growth percentage ([3]; 0.5 A alone): 1% | % MIC of A alone [3, 8]: 0.5% | microbial growth percentage ([4]; 0.0625 A alone): 49% | microbial growth percentage ([4]; 0.125 A alone): 82% | microbial growth percentage ([4]; 0.25 A alone): 116% | microbial growth percentage ([4]; 0.5 A alone): 67% | microbial growth percentage ([4]; 1 A alone): −4% | % MIC of A alone [4, 8]: 1% | microbial growth percentage ([5]; 0.025 A alone, Example 1): 48% | microbial growth percentage ([5]; 0.025 A alone, Example 3): 85% | microbial growth percentage ([5]; 0.025 A alone, Example 6): 69% | microbial growth percentage ([5]; 0.05 A alone, Example 1): 29% | microbial growth percentage ([5]; 0.05 A alone, Example 3): 64% | microbial growth percentage ([5]; 0.05 A alone, Example 6): 63% | microbial growth percentage ([5]; 0.1 A alone, Example 1): 16% | microbial growth percentage ([5]; 0.1 A alone, Example 3): 25% | microbial growth percentage ([5]; 0.1 A alone, Example 6): 38% | microbial growth percentage ([5]; 0.2 A alone, Example 3): 3% | microbial growth percentage ([5]; 0.2 A alone, Example 6): 4% | % MIC A ([5]; A alone, Example 3, first concentration giving growth <= 20%): 0.2% | % MIC of A alone [5, 6]: 0.1% | % MIC of A alone ([5]; Example 6, first concentration giving growth <= 20%): 0.2%

Structure (SMILES): OCCOc1ccccc1 [B1, 2-phenoxyethanol]
microbial growth percentage ([1]; 0.0625 B1 alone): 95% | microbial growth percentage ([1]; 0.125 B1 alone): 89% | microbial growth percentage ([1]; 0.25 B1 alone): 8% | % MIC of B1 alone [1, 8]: 0.25% | microbial growth percentage ([2]; 0.0625 B1 alone): 87% | microbial growth percentage ([2]; 0.125 B1 alone): 86% | microbial growth percentage ([2]; 0.25 B1 alone): 84% | microbial growth percentage ([2]; 0.5 B1 alone): 80% | microbial growth percentage ([2]; 1 B1 alone): 6% | % MIC of B1 alone [2, 8]: 1% | microbial growth percentage ([3]; 0.0625 B1 alone): 66% | microbial growth percentage ([3]; 0.125 B1 alone): 73% | microbial growth percentage ([3]; 0.25 B1 alone): 58% | microbial growth percentage ([3]; 0.5 B1 alone): 1% | % MIC of B1 alone [3, 8]: 0.5% | microbial growth percentage ([4]; 0.0625 B1 alone): 45% | microbial growth percentage ([4]; 0.125 B1 alone): 39% | microbial growth percentage ([4]; 0.25 B1 alone): 39% | microbial growth percentage ([4]; 0.5 B1 alone): 0% | microbial growth percentage ([4]; 1 B1 alone): 0% | % MIC of B1 alone [4, 8]: 0.5% | microbial growth percentage ([5]; 0.0625 B1 alone): 44% | microbial growth percentage ([5]; 0.125 B1 alone): 22% | microbial growth percentage ([5]; 0.25 B1 alone): 2% | % MIC of B1 alone [5, 8]: 0.25%

Now from value to compound, other results behind:

MIC B2 ([5]; B2 alone, first concentration giving growth <= 20%): 0.25%
Structure (SMILES): OCCc1ccccc1 [B2, phenylethyl alcohol]
microbial growth percentage ([5]; 0.125 B2 alone): 41% | microbial growth percentage ([5]; 0.25 B2 alone): 7%

% MIC of B3 alone [1, 8]: 0.5% | % MIC of B3 alone [2, 8]: 1%
Structure (SMILES): OCc1ccccc1 [B3, benzyl alcohol]
microbial growth percentage ([1]; 0.0125 B3 alone): 94% | microbial growth percentage ([1]; 0.25 B3 alone): 31% | microbial growth percentage ([1]; 0.5 B3 alone): 1% | microbial growth percentage ([2]; 0.25 B3 alone): 77% | microbial growth percentage ([2]; 0.5 B3 alone): 30% | microbial growth percentage ([2]; 1 B3 alone): 3%

% MIC of B4 alone [2]: 0.1% | % MIC of B4 alone [5, 8]: 0.04%
Structure (SMILES): Cc1cc(O)ccc1C(C)C [B4, 4-isopropyl-3-methylphenol]
microbial growth percentage ([2]; 0.0125 B4 alone): 45% | microbial growth percentage ([2]; 0.025 B4 alone): 44% | microbial growth percentage ([2]; 0.05 B4 alone): 27% | microbial growth percentage ([2]; 0.1 B4 alone): 23% | microbial growth percentage ([5]; 0.0025 B4 alone): 87% | microbial growth percentage ([5]; 0.005 B4 alone): 82% | microbial growth percentage ([5]; 0.01 B4 alone): 73% | microbial growth percentage ([5]; 0.02 B4 alone): 35% | microbial growth percentage ([5]; 0.04 B4 alone): 1%
